The results in this text go back to patent US12637428B2, “Isoquinoline derivatives as SIK2 inhibitors” (Cancer Research Technology Limited, priority 2019, dated 2026).

Holding throughout (format): biochemical
One experiment concerns the target T1, SIK2 (Homo sapiens, UniProt Q9H0K1).
T1 construct: purchased Life Technologies
The experiment in a line: SIK2 kinase assay, IMAP fluorescence polarization. The settings on record: 50 or 100 μM ATP, average. Summed up:
(§1)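 Dose-response over 0.00005-1 μM compound in 20 mM Tris pH 7.2 containing 4 mM MgCl2, 0.2% BSA and 2 mM DTT, with 50 or 100 μM ATP and 100 nM FAM-labelled peptide. Kinase 0.6-13 nM, 60 min at room temperature; IMAP FP readout, inhibition normalized to no-inhibitor and no-enzyme controls.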
In general terms: Fluorescence polarisation rises when a labelled molecule tumbles more slowly, as on binding a larger partner.

A further experiment has as its target T2, SIK1 (Homo sapiens, UniProt P57059).
T2 construct: purchased Life Technologies
The experiment in a line: SIK1 kinase assay, IMAP fluorescence polarization. The settings on record: 50 or 100 μM ATP, average. Summed up: as §1

The target in a further experiment is T3, SIK3 (Homo sapiens, UniProt Q9Y2K2).
T3 construct: purchased Life Technologies
Nature of the experiment: SIK3 kinase assay, IMAP fluorescence polarization. The settings on record: 50 or 100 μM ATP, average. Summed up: as §1

The target of another experiment is T4, Abl (Homo sapiens, UniProt P00519).
T4 construct: purchased Life Technologies
T4 sequence (P00519 whole entry): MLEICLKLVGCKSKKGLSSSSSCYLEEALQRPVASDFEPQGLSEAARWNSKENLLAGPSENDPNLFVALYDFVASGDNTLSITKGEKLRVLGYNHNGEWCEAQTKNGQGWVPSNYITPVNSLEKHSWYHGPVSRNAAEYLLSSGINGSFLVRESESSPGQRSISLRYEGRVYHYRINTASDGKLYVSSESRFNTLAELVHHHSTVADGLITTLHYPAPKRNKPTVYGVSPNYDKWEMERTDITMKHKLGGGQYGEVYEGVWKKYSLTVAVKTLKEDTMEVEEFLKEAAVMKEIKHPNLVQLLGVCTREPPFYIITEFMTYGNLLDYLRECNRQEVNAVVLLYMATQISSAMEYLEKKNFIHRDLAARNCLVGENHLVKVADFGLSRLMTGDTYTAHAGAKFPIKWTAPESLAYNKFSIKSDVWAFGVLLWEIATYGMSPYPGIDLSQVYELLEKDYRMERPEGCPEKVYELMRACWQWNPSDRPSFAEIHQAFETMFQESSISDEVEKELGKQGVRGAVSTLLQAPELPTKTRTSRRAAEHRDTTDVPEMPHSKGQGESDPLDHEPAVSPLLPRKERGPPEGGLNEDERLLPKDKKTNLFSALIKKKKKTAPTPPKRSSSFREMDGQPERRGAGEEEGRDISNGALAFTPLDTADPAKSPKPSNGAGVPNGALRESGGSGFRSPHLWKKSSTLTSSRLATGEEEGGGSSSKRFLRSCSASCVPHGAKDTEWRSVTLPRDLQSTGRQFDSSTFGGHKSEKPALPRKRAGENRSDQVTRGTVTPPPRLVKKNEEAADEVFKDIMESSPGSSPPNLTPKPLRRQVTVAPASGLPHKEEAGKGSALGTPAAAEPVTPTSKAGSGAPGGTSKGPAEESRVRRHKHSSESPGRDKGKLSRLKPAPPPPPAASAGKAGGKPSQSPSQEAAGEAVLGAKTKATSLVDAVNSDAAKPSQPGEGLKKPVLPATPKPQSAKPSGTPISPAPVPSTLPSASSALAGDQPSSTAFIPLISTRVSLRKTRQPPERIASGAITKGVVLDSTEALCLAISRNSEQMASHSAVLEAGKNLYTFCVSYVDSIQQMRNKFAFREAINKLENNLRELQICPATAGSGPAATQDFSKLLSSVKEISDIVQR
Nature of the experiment: Abl kinase assay, IMAP fluorescence polarization. The settings on record: 50 or 100 μM ATP, average. Summed up:
as §1

The target of a further experiment is T5, Src (Homo sapiens, UniProt P12931).
T5 construct: purchased Life Technologies
T5 sequence (P12931 whole entry): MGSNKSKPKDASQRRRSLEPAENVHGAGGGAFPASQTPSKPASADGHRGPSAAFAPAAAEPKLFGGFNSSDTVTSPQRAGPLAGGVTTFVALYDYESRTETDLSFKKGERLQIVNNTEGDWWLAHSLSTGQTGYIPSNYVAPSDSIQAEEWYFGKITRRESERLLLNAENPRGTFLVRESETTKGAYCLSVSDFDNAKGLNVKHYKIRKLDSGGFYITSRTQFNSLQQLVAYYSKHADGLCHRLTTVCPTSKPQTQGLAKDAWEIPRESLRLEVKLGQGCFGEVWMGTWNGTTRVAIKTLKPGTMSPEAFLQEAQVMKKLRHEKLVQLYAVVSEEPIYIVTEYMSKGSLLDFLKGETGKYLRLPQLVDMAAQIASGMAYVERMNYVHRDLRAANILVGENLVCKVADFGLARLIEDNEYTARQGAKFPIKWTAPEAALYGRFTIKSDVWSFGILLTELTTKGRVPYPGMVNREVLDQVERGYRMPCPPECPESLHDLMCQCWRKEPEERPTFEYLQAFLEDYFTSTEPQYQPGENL
Nature of the experiment: Src kinase assay, IMAP fluorescence polarization. Conditions: 50 or 100 μM ATP, average. Summed up: as §1

In another experiment the target is T6, EPHA2 (Homo sapiens, UniProt P29317).
T6 construct: purchased Life Technologies
T6 sequence (P29317 24-976): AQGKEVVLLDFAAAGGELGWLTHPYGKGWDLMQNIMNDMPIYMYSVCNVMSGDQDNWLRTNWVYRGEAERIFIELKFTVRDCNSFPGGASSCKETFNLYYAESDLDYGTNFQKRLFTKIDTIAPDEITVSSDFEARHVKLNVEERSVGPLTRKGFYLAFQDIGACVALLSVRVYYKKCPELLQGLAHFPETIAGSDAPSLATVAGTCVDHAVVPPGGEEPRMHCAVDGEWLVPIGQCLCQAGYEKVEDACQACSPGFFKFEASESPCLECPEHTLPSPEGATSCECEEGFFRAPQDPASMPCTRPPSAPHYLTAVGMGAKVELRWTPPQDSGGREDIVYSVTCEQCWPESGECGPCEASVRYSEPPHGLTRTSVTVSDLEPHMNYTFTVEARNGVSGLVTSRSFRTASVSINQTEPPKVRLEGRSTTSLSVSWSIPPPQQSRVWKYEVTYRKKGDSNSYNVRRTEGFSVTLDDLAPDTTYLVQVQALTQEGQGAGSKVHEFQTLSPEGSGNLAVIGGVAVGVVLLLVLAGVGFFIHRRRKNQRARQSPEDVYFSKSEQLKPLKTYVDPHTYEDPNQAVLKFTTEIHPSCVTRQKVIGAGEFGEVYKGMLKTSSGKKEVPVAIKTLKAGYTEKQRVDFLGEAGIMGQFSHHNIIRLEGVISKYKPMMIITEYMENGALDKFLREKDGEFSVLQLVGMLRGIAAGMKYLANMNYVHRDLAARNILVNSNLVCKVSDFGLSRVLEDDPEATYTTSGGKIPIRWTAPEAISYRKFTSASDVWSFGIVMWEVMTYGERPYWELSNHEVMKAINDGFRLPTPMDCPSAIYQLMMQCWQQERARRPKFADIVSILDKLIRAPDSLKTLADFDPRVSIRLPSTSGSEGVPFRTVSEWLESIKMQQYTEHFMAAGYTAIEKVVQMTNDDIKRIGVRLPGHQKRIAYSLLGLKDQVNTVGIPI
Nature of the experiment: EPHA2 kinase assay, IMAP fluorescence polarization. The settings on record: 50 or 100 μM ATP, Tris pH 8.5, average.

T2 sequence (P57059 whole entry): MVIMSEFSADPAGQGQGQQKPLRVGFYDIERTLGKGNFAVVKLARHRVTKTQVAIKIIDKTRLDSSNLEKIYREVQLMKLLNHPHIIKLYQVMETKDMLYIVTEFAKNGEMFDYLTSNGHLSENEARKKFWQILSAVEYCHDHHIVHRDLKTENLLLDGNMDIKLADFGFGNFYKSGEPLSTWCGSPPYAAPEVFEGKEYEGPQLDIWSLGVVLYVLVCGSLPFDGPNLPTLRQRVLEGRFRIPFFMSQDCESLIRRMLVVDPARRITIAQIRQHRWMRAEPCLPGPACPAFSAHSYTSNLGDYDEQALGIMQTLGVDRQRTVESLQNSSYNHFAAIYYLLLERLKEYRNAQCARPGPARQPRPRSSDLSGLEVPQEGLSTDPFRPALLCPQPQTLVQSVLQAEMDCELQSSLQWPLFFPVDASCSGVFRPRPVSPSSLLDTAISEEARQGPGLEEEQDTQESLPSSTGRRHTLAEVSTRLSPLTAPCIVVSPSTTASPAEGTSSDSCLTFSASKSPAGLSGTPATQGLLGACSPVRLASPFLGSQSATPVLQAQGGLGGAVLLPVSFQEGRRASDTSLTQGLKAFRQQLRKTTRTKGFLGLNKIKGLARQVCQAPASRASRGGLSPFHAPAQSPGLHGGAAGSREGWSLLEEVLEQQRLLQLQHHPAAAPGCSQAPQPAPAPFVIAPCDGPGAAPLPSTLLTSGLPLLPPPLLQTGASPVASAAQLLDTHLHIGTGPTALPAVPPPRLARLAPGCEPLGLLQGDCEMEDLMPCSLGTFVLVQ
T1 sequence (Q9H0K1 whole entry): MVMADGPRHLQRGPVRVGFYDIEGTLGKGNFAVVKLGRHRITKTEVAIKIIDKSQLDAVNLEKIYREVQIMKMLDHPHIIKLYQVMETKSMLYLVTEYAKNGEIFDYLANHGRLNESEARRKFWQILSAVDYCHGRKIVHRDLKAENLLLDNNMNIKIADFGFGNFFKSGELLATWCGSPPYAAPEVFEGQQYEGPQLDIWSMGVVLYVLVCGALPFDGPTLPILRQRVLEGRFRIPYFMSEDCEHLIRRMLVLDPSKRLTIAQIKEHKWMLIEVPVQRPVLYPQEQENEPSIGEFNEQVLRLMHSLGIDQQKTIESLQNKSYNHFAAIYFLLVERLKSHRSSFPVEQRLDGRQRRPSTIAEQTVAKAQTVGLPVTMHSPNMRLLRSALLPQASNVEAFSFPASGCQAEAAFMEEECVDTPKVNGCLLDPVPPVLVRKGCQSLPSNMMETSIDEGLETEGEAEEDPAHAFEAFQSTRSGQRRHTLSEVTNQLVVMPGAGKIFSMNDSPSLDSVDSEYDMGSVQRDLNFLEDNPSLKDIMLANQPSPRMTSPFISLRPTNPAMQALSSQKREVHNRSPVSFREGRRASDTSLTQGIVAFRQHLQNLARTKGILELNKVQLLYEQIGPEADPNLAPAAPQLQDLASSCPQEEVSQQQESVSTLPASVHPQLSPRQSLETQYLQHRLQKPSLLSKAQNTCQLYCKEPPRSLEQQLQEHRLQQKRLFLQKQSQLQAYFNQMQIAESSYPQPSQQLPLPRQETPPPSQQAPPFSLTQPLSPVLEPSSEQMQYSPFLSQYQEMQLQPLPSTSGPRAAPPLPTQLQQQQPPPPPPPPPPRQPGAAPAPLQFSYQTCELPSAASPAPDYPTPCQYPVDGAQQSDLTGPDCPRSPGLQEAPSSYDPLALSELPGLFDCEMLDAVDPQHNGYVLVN

Regarding `Cc1cccc(F)c1-c1cc(N[C@H]2CCNC2)c2cc(N)ncc2c1` [Example 7, 7-(2-fluoro-6-methyl-phenyl)-N5-[(3S)-pyrrolidin-3-yl]isoquinoline-3,5-diamine], the Ki was found to be 0.0496 nM at SIK2; 0.414 nM on SIK1; 0.325 nM on SIK3; 5.55 nM on Abl; 193 nM at Src; 199 nM on EPHA2.
Turning to `Cc1cccc(F)c1-c1cc(OC2CCNCC2)c2cc(N)ncc2c1` [Example 46, 7-(2-Fluoro-6-methyl-phenyl)-5-(4-piperidyloxy)isoquinolin-3-amine], the Ki was 0.0203 nM at SIK2; 0.192 nM at SIK1; 0.125 nM on SIK3; 3.63 nM at Abl; 95.8 nM on Src; 39.2 nM on EPHA2.
In the case of `Cc1cccc(F)c1-c1cc(NC2CNC2)c2cc(N)ncc2c1` [Example 3, N5-(azetidin-3-yl)-7-(2-fluoro-6-methyl-phenyl)isoquinoline-3,5-diamine], the Ki on SIK2 came to 0.143 nM; on SIK1, 0.808 nM; on SIK3 it was 0.643 nM; on Abl, 20.4 nM; at Src, 330 nM; at EPHA2, 878 nM.
For `Cc1cccc(F)c1-c1cc(N[C@@H]2CCCN(C)C2)c2cc(N)ncc2c1` [Example 85, 7-(2-fluoro-6-methyl-phenyl)-N5-[(3R)-1-methyl-3-piperidyl]isoquinoline-3,5-diamine], the Ki amounted to 0.0911 nM at SIK2; 0.611 nM on SIK1; 1.62 nM on SIK3; 7.38 nM at Abl; 40.2 nM on Src; 258 nM on EPHA2.
`Cc1cccc(F)c1-c1cc(NC2CCNCC2)c2ccncc2c1` [Example 49, 7-(2-Fluoro-6-methyl-phenyl)-N-(4-piperidyl)isoquinolin-5-amine]: the Ki is 0.116 nM on SIK2; 0.496 nM on SIK1; 0.778 nM at SIK3; over 1000 nM at Abl; 219 nM at Src; 175 nM on EPHA2.
On to `Cc1cccc(F)c1-c1cc(NCC2CNC2)c2cc(N)ncc2c1` [Example 11, N5-(azetidin-3-ylmethyl)-7-(2-fluoro-6-methyl-phenyl)isoquinoline-3,5-diamine], for which the inhibition constant (Ki) was found to be 0.0672 nM on SIK2; 0.417 nM on SIK1; 0.195 nM on SIK3; 0.921 nM on Abl; 23.5 nM at Src; 95.1 nM at EPHA2.
Regarding `CN[C@H]1CCN(c2cc(-c3c(C)cccc3F)cc3cnc(N)cc23)C1` [Example 16, 7-(2-fluoro-6-methyl-phenyl)-5-[(3S)-3-(methylamino)pyrrolidin-1-yl]isoquinolin-3-amine], the Ki on SIK2 was determined as 0.224 nM; on SIK1, 2 nM; on SIK3, 4.7 nM; at Abl it was 41.6 nM; on Src, 924 nM; on EPHA2, 278 nM.
On to `CCN1CCC(Nc2cc(-c3c(C)cccc3Cl)cc3cnc(N)nc23)CC1` [Example 128, 6-(2-chloro-6-methyl-phenyl)-N8-(1-ethyl-4-piperidyl)quinazoline-2,8-diamine], for which the Ki was 0.184 nM on SIK2; 0.409 nM at SIK1; 1.46 nM on SIK3; 26.4 nM at Abl; 27.4 nM at Src; 20 nM on EPHA2.
As for `CC(=O)N[C@@H]1CCN(c2cc(-c3c(C)cccc3F)cc3cnc(N)cc23)C1` [Example 113, N-[(3R)-1-[3-amino-7-(2-fluoro-6-methyl-phenyl)-5-isoquinolyl]pyrrolidin-3-yl]acetamide], the Ki was 9.81 nM at SIK2; 74.9 nM on SIK1; 234 nM at SIK3; 88.9 nM on Abl; 1080 nM on Src; over 10000 nM at EPHA2.

In general, Ki refers to the equilibrium dissociation constant of an inhibitor or competing ligand from its target.
